Results taken from ChEMBL document CHEMBL4402606, “Design and Characterization of the First Selective and Potent Mechanism-Based Inhibitor of Cytochrome P450 4Z1” (J Med Chem, 2020).

What was measured:
Cytochrome P450 4Z1 [1] = target: T1, Cytochrome P450 4Z1 (Homo sapiens, UniProt Q86W10); test: Inhibition of CYP4Z1 (unknown origin) in human HepG2 cell membranes transduced with lentiviral vector using luciferin-benzyl ether as substrate incubated for 5 mins followed by NADPH addition and measured after 20 mins by P450-glo luciferase based luminescence assay
T1 sequence (Q86W10 whole entry): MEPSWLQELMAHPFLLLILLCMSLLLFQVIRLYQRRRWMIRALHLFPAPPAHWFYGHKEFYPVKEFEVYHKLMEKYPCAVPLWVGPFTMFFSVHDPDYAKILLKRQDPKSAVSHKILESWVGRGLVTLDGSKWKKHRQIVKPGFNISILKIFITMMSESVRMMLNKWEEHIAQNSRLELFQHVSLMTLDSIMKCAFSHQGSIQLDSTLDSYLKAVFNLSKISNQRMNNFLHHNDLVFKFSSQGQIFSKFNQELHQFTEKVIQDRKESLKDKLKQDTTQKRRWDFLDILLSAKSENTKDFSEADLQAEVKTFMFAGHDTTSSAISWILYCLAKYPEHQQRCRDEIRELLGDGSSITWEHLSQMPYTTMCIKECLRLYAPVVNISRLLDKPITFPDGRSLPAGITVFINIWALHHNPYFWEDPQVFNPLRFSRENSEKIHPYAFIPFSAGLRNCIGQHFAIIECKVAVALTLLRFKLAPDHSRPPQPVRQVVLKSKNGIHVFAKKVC

Cytochrome P450 4Z1 [2] = target: T1, Cytochrome P450 4Z1; test: Inhibition of CYP4Z1 (unknown origin) in human HepG2 cell membranes transduced with lentiviral vector using luciferin-benzyl ether as substrate preincubated with NADPH for 30 mins followed by substrate addition and measured after 10 mins by P450-glo luciferase based luminescence assay
Cytochrome P450 2C19 [3] = target: T2, Cytochrome P450 2C19 (Homo sapiens, UniProt P33261); test: Inhibition of CYP2C19 in human pooled liver microsomes using (S)-mephenytoin as substrate preincubated with NADPH for 30 mins followed by substrate addition and measured after 10 mins by UPLC-MS/MS analysis; type: ADME
T2 sequence (P33261 whole entry): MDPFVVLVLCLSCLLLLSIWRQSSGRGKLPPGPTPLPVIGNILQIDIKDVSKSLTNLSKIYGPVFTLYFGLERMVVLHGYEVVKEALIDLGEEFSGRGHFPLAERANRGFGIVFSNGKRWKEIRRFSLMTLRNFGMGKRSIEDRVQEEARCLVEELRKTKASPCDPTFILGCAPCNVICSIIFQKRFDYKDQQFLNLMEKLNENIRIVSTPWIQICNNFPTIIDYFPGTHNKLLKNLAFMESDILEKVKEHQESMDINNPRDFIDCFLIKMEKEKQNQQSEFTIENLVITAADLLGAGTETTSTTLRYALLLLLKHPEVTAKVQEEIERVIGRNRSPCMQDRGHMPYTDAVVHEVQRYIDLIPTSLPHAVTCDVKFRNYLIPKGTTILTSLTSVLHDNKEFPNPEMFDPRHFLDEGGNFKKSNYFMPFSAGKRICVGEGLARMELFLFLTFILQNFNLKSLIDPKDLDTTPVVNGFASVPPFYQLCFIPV

Cytochrome P450 1A2 [4] = target: T3, Cytochrome P450 1A2 (Homo sapiens, UniProt P05177); test: Inhibition of CYP1A2 in human pooled liver microsomes using phenacetin as substrate after 10 mins by UPLC-MS/MS analysis; type: ADME
T3 sequence (P05177 whole entry): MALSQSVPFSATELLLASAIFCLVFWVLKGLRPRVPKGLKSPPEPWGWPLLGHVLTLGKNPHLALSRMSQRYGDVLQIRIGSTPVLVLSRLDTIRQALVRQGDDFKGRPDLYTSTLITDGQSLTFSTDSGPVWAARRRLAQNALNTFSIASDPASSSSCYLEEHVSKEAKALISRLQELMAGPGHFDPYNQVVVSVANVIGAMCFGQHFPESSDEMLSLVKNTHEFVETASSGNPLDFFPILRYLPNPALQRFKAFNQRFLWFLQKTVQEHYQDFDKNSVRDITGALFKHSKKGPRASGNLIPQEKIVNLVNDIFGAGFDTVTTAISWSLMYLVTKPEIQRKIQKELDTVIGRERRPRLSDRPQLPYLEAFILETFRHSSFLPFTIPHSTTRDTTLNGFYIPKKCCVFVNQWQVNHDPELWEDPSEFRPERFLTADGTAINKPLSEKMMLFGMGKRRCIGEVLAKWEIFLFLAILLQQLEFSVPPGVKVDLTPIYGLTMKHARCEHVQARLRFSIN

Cytochrome P450 2C8 [5] = target: T4, Cytochrome P450 2C8 (Homo sapiens, UniProt P10632); test: Inhibition of CYP2C8 in human pooled liver microsomes using amodiaquine as substrate preincubated with NADPH for 30 mins followed by substrate addition and measured after 10 mins by UPLC-MS/MS analysis; type: ADME
T4 sequence (P10632 whole entry): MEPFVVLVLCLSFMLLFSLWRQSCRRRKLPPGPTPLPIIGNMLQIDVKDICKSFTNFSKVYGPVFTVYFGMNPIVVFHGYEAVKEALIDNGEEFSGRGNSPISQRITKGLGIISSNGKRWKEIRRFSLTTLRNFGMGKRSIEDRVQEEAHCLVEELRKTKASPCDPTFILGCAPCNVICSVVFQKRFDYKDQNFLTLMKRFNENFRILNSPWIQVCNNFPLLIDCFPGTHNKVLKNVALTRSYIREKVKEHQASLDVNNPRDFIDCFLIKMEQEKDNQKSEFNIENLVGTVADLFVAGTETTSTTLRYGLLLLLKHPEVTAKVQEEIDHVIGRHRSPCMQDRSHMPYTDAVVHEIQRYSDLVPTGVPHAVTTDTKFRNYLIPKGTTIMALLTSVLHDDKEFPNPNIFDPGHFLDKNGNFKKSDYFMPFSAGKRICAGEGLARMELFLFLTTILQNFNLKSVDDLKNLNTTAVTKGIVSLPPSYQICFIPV

Cytochrome P450 2C9 [6] = target: T5, Cytochrome P450 2C9 (Homo sapiens, UniProt P11712); test: Inhibition of CYP2C9 in human pooled liver microsomes using tolbutamide as substrate after 10 mins by UPLC-MS/MS analysis; type: ADME
T5 sequence (P11712 whole entry): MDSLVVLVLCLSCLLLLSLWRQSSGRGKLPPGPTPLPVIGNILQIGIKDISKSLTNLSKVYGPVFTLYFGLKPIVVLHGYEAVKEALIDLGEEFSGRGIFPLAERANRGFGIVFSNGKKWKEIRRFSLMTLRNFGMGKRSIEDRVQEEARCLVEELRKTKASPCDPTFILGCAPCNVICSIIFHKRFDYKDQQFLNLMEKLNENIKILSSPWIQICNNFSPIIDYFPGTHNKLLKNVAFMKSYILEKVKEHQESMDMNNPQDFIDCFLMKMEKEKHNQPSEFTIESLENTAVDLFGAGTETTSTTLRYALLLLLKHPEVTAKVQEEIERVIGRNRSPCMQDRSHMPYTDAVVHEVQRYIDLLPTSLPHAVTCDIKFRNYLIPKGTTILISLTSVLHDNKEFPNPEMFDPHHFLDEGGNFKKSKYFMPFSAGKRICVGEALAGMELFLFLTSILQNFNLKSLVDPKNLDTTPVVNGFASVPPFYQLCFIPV

Cytochrome P450 1A2 [7] = target: T3, Cytochrome P450 1A2; test: Inhibition of CYP1A2 in human pooled liver microsomes using phenacetin as substrate preincubated with NADPH for 30 mins followed by substrate addition and measured after 10 mins by UPLC-MS/MS analysis; type: ADME
T47D = test: Cytotoxicity against human T47D cells at 3 uM after 24 hrs by CellTiter-Glo luminescent cell viability assay; type: cell-based
Cytochrome P450 2C8 [8] = target: T4, Cytochrome P450 2C8; test: Inhibition of CYP2C8 in human pooled liver microsomes using amodiaquine as substrate after 10 mins by UPLC-MS/MS analysis; type: ADME
HepG2 = test: Cytotoxicity against human HepG2 cells at 3 uM after 24 hrs by CellTiter-Glo luminescent cell viability assay; type: cell-based; settings: hepg2, 24 h
Cytochrome P450 2C19 [9] = target: T2, Cytochrome P450 2C19; test: Inhibition of CYP2C19 in human pooled liver microsomes using (S)-mephenytoin as substrate after 10 mins by UPLC-MS/MS analysis; type: ADME
Cytochrome P450 2D6 [10] = target: T6, Cytochrome P450 2D6 (Homo sapiens, UniProt P10635); test: Inhibition of CYP2D6 in human pooled liver microsomes using dextromethorphan as substrate after 10 mins by UPLC-MS/MS analysis; type: ADME
T6 sequence (P10635 whole entry): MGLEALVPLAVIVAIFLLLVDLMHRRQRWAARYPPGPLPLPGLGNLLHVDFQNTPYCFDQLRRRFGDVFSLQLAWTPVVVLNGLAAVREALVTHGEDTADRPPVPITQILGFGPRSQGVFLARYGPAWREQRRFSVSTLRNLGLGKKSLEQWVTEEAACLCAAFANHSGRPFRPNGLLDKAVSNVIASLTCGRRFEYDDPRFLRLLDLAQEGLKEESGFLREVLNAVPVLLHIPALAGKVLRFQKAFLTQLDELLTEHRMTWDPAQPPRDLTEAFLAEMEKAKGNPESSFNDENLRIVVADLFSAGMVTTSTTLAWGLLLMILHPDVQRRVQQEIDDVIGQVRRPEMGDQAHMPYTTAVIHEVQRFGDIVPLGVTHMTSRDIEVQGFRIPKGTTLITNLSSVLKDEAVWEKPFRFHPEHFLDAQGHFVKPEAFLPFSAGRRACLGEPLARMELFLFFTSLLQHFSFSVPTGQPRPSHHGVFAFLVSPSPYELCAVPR

CYP3A4/5 [11] = target: T7, CYP3A4/5 (Homo sapiens, UniProt P08684+P20815); test: Inhibition of CYP3A4/5 in human pooled liver microsomes using midazolam as substrate preincubated with NADPH for 30 mins followed by substrate addition and measured after 10 mins by UPLC-MS/MS analysis; type: ADME; settings: probe midazolam
Cytochrome P450 2D6 [12] = target: T6, Cytochrome P450 2D6; test: Inhibition of CYP2D6 in human pooled liver microsomes using dextromethorphan as substrate preincubated with NADPH for 30 mins followed by substrate addition and measured after 10 mins by UPLC-MS/MS analysis; type: ADME
Cytochrome P450 2C9 [13] = target: T5, Cytochrome P450 2C9; test: Inhibition of CYP2C9 in human pooled liver microsomes using tolbutamide as substrate preincubated with NADPH for 30 mins followed by substrate addition and measured after 10 mins by UPLC-MS/MS analysis; type: ADME
CYP3A4/5 [14] = target: T7, CYP3A4/5; test: Inhibition of CYP3A4/5 in human pooled liver microsomes using midazolam as substrate after 10 mins by UPLC-MS/MS analysis; type: ADME; settings: probe midazolam

IC50 (Cytochrome P450 2C19 [3]) [µM]	IC50 (Cytochrome P450 1A2 [4]) [µM]	IC50 (Cytochrome P450 2C8 [5]) [µM]	IC50 (Cytochrome P450 2C9 [6]) [µM]	IC50 (Cytochrome P450 1A2 [7]) [µM]	IC50 (Cytochrome P450 2C8 [8]) [µM]	IC50 (Cytochrome P450 2C19 [9]) [µM]	IC50 (Cytochrome P450 2D6 [10]) [µM]	IC50 at 10 min (CYP3A4/5 [11]) [µM]	IC50 (Cytochrome P450 2D6 [12]) [µM]	IC50 (Cytochrome P450 2C9 [13]) [µM]	IC50 at 10 min (CYP3A4/5 [14]) [µM]	SMILES	IC50 (Cytochrome P450 4Z1 [1]) [µM]	IC50 (Cytochrome P450 4Z1 [2]) [µM]	Activity (T47D)	Activity (HepG2)
–	–	–	–	–	–	–	–	–	–	–	–	Nn1nnc2ccccc21	154	12	–	–
246	614	84	343	55	306	759	826	128	299	330	244	O=C(O)CCCCCCCNn1nnc2ccccc21	–	–	Non-Toxic	Non-Toxic
1640	2790	954	> 3000	228	2310	> 3000	2850	766	1710	1940	1310	O=C(O)CCCCCNn1nnc2ccccc21	–	–	–	–
